What follows are compounds tested against His-tagged N-terminal ATP binding domain (amino acid residues 9-236) of HSP90α (Homo sapiens, UniProt P07900) (assay: HSP90 inhibitor binding potency: TRF competition binding assay). Conditions: Table 4; competition with biotinylated radicicol.
Outline: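 His-tagged HSP90α N-domain (residues 9-236) incubated 2 h at room temperature with biotinylated radicicol and increasing compound in 50 mM HEPES, 6 mM MgCl2, 20 mM KCl, 0.1% BSA. Bound tracer captured on streptavidin plates, detected with europium anti-His antibody by time-resolved fluorescence; IC50 derived.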

| Compound | IC50 |
| --- | --- |
| CCc1nc(N)nc2c1C(=O)N[C@@H](c1ccccc1-c1cncc(OC)n1)C2 [Compound 199, (R)-2-Amino-4-ethyl-7-[2-(6-methoxy-pyrazin-2-yl)-phenyl]-7,8-dihydro-6H-pyrido[4,3-d]pyrimidin-5-one] | < 10 µM |
| CCc1nc(N)nc2c1C(=O)N[C@@H](c1ccccc1-c1cnc(N)c(OC)n1)C2 [Compound 200, (R)-2-Amino-7-[2-(5-amino-6-methoxy-pyrazin-2-yl)-phenyl]-4-ethyl-7,8-dihydro-6H-pyrido[4,3-d]pyrimidin-5-one] | < 10 µM |
| CCc1nc(N)nc2c1C(=O)N[C@@H](c1ccccc1-c1csc(OC)n1)C2 [Compound 201, (R)-2-Amino-4-ethyl-7-[2-(2-methoxy-thiazol-4-yl)-phenyl]-7,8-dihydro-6H-pyrido[4,3-d]pyrimidin-5-one] | ≥ 10 µM |
| COc1nc(-c2cc(F)ccc2[C@H]2Cc3nc(N)nc(C)c3C(=O)N2)ncc1Cl [Compound 202, (R)-2-Amino-7-[2-(5-chloro-4-methoxy-pyrimidin-2-yl)-4-fluoro-phenyl]-4-methyl-7,8-dihydro-6H-pyrido[4,3-d]pyrimidin-5-one] | < 10 µM |
| COc1cncc(-c2ccccc2[C@H]2Cc3nc(N)ncc3C(=O)N2)n1 [Compound 203, (R)-2-Amino-7-[2-(6-methoxy-pyrazin-2-yl)-phenyl]-7,8-dihydro-6H-pyrido[4,3-d]pyrimidin-5-one] | < 10 µM |
| COc1nc(-c2ccccc2[C@H]2Cc3nc(N)nc(C)c3C(=O)N2)ncc1F [Compound 204, (R)-2-Amino-7-[2-(5-fluoro-4-methoxy-pyrimidin-2-yl)-phenyl]-4-methyl-7,8-dihydro-6H-pyrido[4,3-d]pyrimidin-5-one] | < 10 µM |
| COc1nc(-c2ccccc2[C@H]2Cc3nc(N)nc(C)c3C(=O)N2)ccc1N [Compound 205, (R)-2-Amino-7-[2-(5-amino-6-methoxy-pyridin-2-yl)-phenyl]-4-methyl-7,8-dihydro-6H-pyrido[4,3-d]pyrimidin-5-one] | < 10 µM |
| COc1cccc(-c2ccccc2[C@H]2Cc3nc(N)ncc3C(=O)N2)n1 [Compound 206, (R)-2-Amino-7-[2-(6-methoxy-pyridin-2-yl)-phenyl]-7,8-dihydro-6H-pyrido[4,3-d]pyrimidin-5-one] | < 10 µM |
| Cc1nc(N)nc2c1C(=O)N[C@@H](c1ccc(F)cc1-c1nccc(N3CCCC3)n1)C2 [Compound 207, (R)-2-Amino-7-[4-fluoro-2-(4-pyrrolidin-1-yl-pyrimidin-2-yl)-phenyl]-4-methyl-7,8-dihydro-6H-pyrido[4,3-d]pyrimidin-5-one] | ≥ 10 µM |
| COc1nc(-c2cc(F)ccc2[C@H]2Cc3nc(N)ncc3C(=O)N2)ccc1N [Compound 208, (R)-2-Amino-7-[2-(5-amino-6-methoxy-pyridin-2-yl)-4-fluoro-phenyl]-7,8-dihydro-6H-pyrido[4,3-d]pyrimidin-5-one] | < 10 µM |
| COc1ccc(-c2cc(F)ccc2[C@H]2Cc3nc(N)nc(C)c3C(=O)N2)s1 [Compound 209, (R)-2-Amino-7-[4-fluoro-2-(5-methoxy-thiophen-2-yl)-phenyl]-4-methyl-7,8-dihydro-6H-pyrido[4,3-d]pyrimidin-5-one] | < 10 µM |
| CCc1nc(N)nc2c1C(=O)N[C@@H](c1ccc(F)cc1Br)C2 [Compound 210, (R)-2-Amino-7-(2-bromo-4-fluoro-phenyl)-4-ethyl-7,8-dihydro-6H-pyrido[4,3-d]pyrimidin-5-one] | ≥ 10 µM |
| CCc1nc(N)nc2c1C(=O)N[C@@H](c1ccc(F)cc1-c1cccc(OC)n1)C2 [Compound 211, (R)-2-Amino-4-ethyl-7-[4-fluoro-2-(6-methoxy-pyridin-2-yl)-phenyl]-7,8-dihydro-6H-pyrido[4,3-d]pyrimidin-5-one] | < 10 µM |
| CCc1nc(N)nc2c1C(=O)N[C@@H](c1ccc(F)cc1-c1cncc(OC)n1)C2 [Compound 212, (R)-2-Amino-4-ethyl-7-[4-fluoro-2-(6-methoxy-pyrazin-2-yl)-phenyl]-7,8-dihydro-6H-pyrido[4,3-d]pyrimidin-5-one] | < 10 µM |
| COc1cccc(-c2cc(F)ccc2[C@H]2Cc3nc(N)nc(C)c3C(=O)N2)c1OC [Compound 213, (R)-2-Amino-7-(5-fluoro-2′,3′-dimethoxy-biphenyl-2-yl)-4-methyl-7,8-dihydro-6H-pyrido[4,3-d]pyrimidin-5-one] | < 10 µM |
| CCOc1nc(-c2cc(F)ccc2[C@H]2Cc3nc(N)ncc3C(=O)N2)cnc1N [Compound 214, (R)-2-Amino-7-[2-(5-amino-6-ethoxy-pyrazin-2-yl)-4-fluoro-phenyl]-7,8-dihydro-6H-pyrido[4,3-d]pyrimidin-5-one] | < 10 µM |
| CCc1nc(N)nc2c1C(=O)N[C@@H](c1ccc(F)cc1-c1csc(OC)n1)C2 [Compound 215, (R)-2-Amino-4-ethyl-7-[4-fluoro-2-(2-methoxy-thiazol-4-yl)-phenyl]-7,8-dihydro-6H-pyrido[4,3-d]pyrimidin-5-one] | < 10 µM |

More lines, now with the values ahead:

| IC50 | Compound |
| --- | --- |
| < 10 µM | CCOc1cncc(-c2cc(F)ccc2[C@H]2Cc3nc(N)nc(C)c3C(=O)N2)n1 [Compound 216, (R)-2-Amino-7-[2-(6-ethoxy-pyrazin-2-yl)-4-fluoro-phenyl]-4-methyl-7,8-dihydro-6H-pyrido[4,3-d]pyrimidin-5-one] |
| < 10 µM | CCOc1cncc(-c2cc(F)ccc2[C@H]2Cc3nc(N)nc(CC)c3C(=O)N2)n1 [Compound 217, (R)-2-Amino-7-[2-(6-ethoxy-pyrazin-2-yl)-4-fluoro-phenyl]-4-ethyl-7,8-dihydro-6H-pyrido[4,3-d]pyrimidin-5-one] |
| < 10 µM | CCOc1cncc(-c2cc(F)ccc2[C@H]2Cc3nc(N)ncc3C(=O)N2)n1 [Compound 218, (R)-2-Amino-7-[2-(6-ethoxy-pyrazin-2-yl)-4-fluoro-phenyl]-7,8-dihydro-6H-pyrido[4,3-d]pyrimidin-5-one] |
| ≥ 10 µM | Cc1nc(N)nc2c1C(=O)N[C@@H](c1ccc(F)cc1C#N)C2 [Compound 219, 2-((R)-2-Amino-4-methyl-5-oxo-5,6,7,8-tetrahydro-pyrido[4,3-d]pyrimidin-7-yl)-5-fluoro-benzonitrile] |
| < 10 µM | CCOc1cncc(-c2ccccc2[C@H]2Cc3nc(N)nc(C)c3C(=O)N2)n1 [Compound 220, (R)-2-Amino-7-[2-(6-ethoxy-pyrazin-2-yl)-phenyl]-4-methyl-7,8-dihydro-6H-pyrido[4,3-d]pyrimidin-5-one] |
| < 10 µM | COc1nc(-c2ccccc2[C@H]2Cc3nc(N)nc(C)c3C(=O)N2)ncc1C [Compound 221, (R)-2-Amino-7-[2-(4-methoxy-5-methyl-pyrimidin-2-yl)-phenyl]-4-methyl-7,8-dihydro-6H-pyrido[4,3-d]pyrimidin-5-one] |
| ≥ 10 µM | Cc1nc(N)nc2c1C(=O)N[C@@H](c1ccc(F)cc1-c1n[nH]c(=O)o1)C2 [Compound 222, (R)-2-Amino-7-[4-fluoro-2-(5-oxo-4,5-dihydro-[1,3,4]oxadiazol-2-yl)-phenyl]-4-methyl-7,8-dihydro-6H-pyrido[4,3-d]pyrimi[…]din-5-one] |
| < 10 µM | COc1nnc(-c2cc(F)ccc2[C@H]2Cc3nc(N)nc(C)c3C(=O)N2)o1 [Compound 223, (R)-2-Amino-7-[4-fluoro-2-(5-methoxy-[1,3,4]oxadiazol-2-yl)-phenyl]-4-methyl-7,8-dihydro-6H-pyrido[4,3-d]pyrimidin-5-one] |
